Assay results: ChEMBL document CHEMBL4387786, “Mallopenins A-E, Antibacterial Phenolic Derivatives from the Fruits of Mallotus philippensis” (2019)
In brackets after ≈: the same amount, converted by molar mass.

Columns and labels:
[1] = system: Escherichia coli; experiment: Antibacterial activity against Escherichia coli by CLSI guideline based broth microdilution method; format: functional
[2] = system: Micrococcus luteus; experiment: Antibacterial activity against Micrococcus luteus by CLSI guideline based broth microdilution method; format: functional
[3] = system: Staphylococcus aureus; experiment: Antibacterial activity against Staphylococcus aureus by CLSI guideline based broth microdilution method; format: functional
[4] = system: Bacillus cereus; experiment: Antibacterial activity against Bacillus cereus by CLSI guideline based broth microdilution method; format: functional
[5] = system: Shigella flexneri; experiment: Antibacterial activity against Shigella flexneri by CLSI guideline based broth microdilution method; format: functional
[6] = system: Staphylococcus epidermidis; experiment: Antibacterial activity against Staphylococcus epidermidis by CLSI guideline based broth microdilution method; format: functional
[7] = system: Pseudomonas aeruginosa; experiment: Antibacterial activity against Pseudomonas aeruginosa by CLSI guideline based broth microdilution method; format: functional
[8] = system: Streptococcus mutans; experiment: Antibacterial activity against Streptococcus mutans by CLSI guideline based broth microdilution method; format: functional
[9] = system: Salmonella typhimurium; experiment: Antibacterial activity against Salmonella typhimurium by CLSI guideline based broth microdilution method; format: functional, Salmonella enterica subsp. enterica serovar Typhimurium

Row | Compound | MIC [1] [µM] | MIC [2] [µM] | MIC [3] [µM] | MIC [4] [µM] | MIC [5] [µM] | MIC [6] [µM] | MIC [7] [µM] | MIC [8] [µM] | MIC ([9]; Salmonella enterica) [µM] | MIC ([9]; Salmonella enterica subsp. enterica serovar Typhimurium) [µM]
1 | COCc1c2c(c(O)c3c1O[C@H](c1ccccc1)CC3=O)C=CC(C)(C)O2 | > 100 | > 100 | > 100 | > 100 | > 100 | > 100 | > 100 | > 100 | > 100 | 
2 | CN[C@H](CC(C)C)C(=O)N[C@H]1C(=O)N[C@@H](CC(N)=O)C(=O)N[C@H]2C(=O)N[C@H]3C(=O)N[C@H](C(=O)N[C@H](C(=O)O)c4cc(O)cc(O)c4-c4cc3ccc4O)[C@H](O)c3ccc(c(Cl)c3)Oc3cc2cc(c3O[C@@H]2O[C@H](CO)[C@@H](O)[C@H](O)[C@H]2O[C@H]2C[C@](C)(N)[C@H](O)[C@H](C)O2)Oc2ccc(cc2Cl)[C@H]1O [VANCOMYCIN] |  | 0.2 (≈ 0.29 µg/mL) | 0.2 (≈ 0.29 µg/mL) | 0.1 (≈ 0.145 µg/mL) |  | 0.2 (≈ 0.29 µg/mL) |  | 0.2 (≈ 0.29 µg/mL) |  | 
3 | CC(C)=CCc1c(O)c(C(=O)/C=C/c2ccccc2)c2c(c1O)[C@H]1[C@@H]3[C@@H](CC[C@]3(C)O2)C1(C)C | > 100 | > 100 | > 100 | > 100 | > 100 | > 100 | > 100 | > 100 | > 100 | 
4 | GENTAMICIN | 0.5 |  |  |  | 1 |  | 1 |  |  | 1
5 | CC(C)=CCC/C(C)=C/Cc1c(O)c2c(c(C(=O)/C=C/c3ccccc3)c1O)OC(C)(C)C=C2 | > 100 | > 100 | > 100 | > 100 | > 100 | > 100 | > 100 | > 100 | > 100 | 
6 | CC(=O)c1c(O)c(C)c(O)c(Cc2c3c(c(O)c4c2OC(c2ccc(O)cc2)CC4=O)C=CC(C)(C)O3)c1O (centres undefined) | > 100 | > 100 | > 100 | 30.1 (≈ 16 µg/mL) | > 100 | > 100 | > 100 | > 100 | > 100 | 
7 | CC(=O)c1c(O)c(C)c(O)c(Cc2c3c(c(O)c4c2OC(c2ccccc2)CC4=O)C=CC(C)(C)O3)c1O (centres undefined) | > 100 | > 100 | > 100 | > 100 | > 100 | > 100 | > 100 | > 100 | > 100 | 
8 | CC(=O)c1c(O)c(C)c(O)c(Cc2c(O)c3c(c(C(=O)/C=C/c4ccc(O)cc4)c2O)OC(C)(C)C=C3)c1O | 7.5 (≈ 3.99 µg/mL) | 30.1 (≈ 16 µg/mL) | 15 (≈ 7.99 µg/mL) | 3.8 (≈ 2.02 µg/mL) | > 100 | > 100 | > 100 | 3.8 (≈ 2.02 µg/mL) | > 100 | 
9 | CC(=O)c1c(O)c(CC=C(C)C)c2c3c1OC1(C)CCC(C3C1)C(C)(C)O2 (racemic) | > 100 | > 100 | > 100 | > 100 | > 100 | > 100 | > 100 | > 100 | > 100 | 
10 | CC(=O)c1c(O)c(C)c(O)c(Cc2c(O)c(CC=C(C)C)c(O)c3c2OC(c2ccccc2)CC3=O)c1O (centres undefined) | 30.9 (≈ 16 µg/mL) | 30.9 (≈ 16 µg/mL) | 61.8 (≈ 32 µg/mL) | 30.9 (≈ 16 µg/mL) | > 100 | > 100 | > 100 | 30.9 (≈ 16 µg/mL) | > 100 | 
11 | CC(=O)c1c(O)c(C)c(O)c(Cc2c(O)c3c(c(C(=O)/C=C/c4ccccc4)c2O)OC(C)(C)C=C3)c1O [ROTTLERIN] | 15.5 (≈ 8.01 µg/mL) | 15.5 (≈ 8.01 µg/mL) | 15.5 (≈ 8.01 µg/mL) | 15.5 (≈ 8.01 µg/mL) | > 100 | > 100 | > 100 | 15.5 (≈ 8.01 µg/mL) | > 100 | 
12 | CC1(C)C=Cc2c(O)c3c(c(CC(=O)O)c2O1)O[C@H](c1ccccc1)CC3=O | > 100 | > 100 | > 100 | > 100 | > 100 | > 100 | > 100 | > 100 | > 100 | 
